Measurements as given in patent US20160271263A1 (Novo Nordisk A/S, priority 2010, published 2016).
pEC50: −log10 of the molar value. Numbered stars: 1 amine (or outer) side, 2 acyl side, 3 side chain; on linkers, the order of the positions; unused ones are H or OH. Side chains are listed from the residue outwards. Peptide text beside a SMILES is read from it. * marks the point of attachment. C18 diacid = O=C(O)CCCCCCCCCCCCCCCCC(=O)*; γGlu = O=C(O)[C@H](CCC(=O)[*:2])N[*:1]; AEEA = NCCOCCOCC(=O)O

Molecular target: glucagon receptor (Homo sapiens, UniProt P47871)
Test: cell-based

glucagon receptor, sequence (P47871 26-477): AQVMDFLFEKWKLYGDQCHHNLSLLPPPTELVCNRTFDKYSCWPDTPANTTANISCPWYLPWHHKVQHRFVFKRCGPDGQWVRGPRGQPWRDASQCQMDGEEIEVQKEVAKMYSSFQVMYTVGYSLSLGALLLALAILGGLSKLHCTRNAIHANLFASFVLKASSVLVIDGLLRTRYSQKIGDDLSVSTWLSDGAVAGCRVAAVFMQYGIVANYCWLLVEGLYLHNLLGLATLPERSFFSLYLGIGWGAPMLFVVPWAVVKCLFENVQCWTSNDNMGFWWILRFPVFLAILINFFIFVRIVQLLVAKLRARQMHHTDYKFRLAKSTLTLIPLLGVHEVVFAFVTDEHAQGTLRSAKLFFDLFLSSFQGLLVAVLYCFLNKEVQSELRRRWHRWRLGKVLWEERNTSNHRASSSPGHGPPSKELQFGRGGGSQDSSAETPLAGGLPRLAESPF

SMILES	pEC50
CC(C)C[C@H](NC(=O)[C@H](CC(C)C)NC(=O)[C@H](Cc1c[nH]c2ccccc12)NC(=O)[C@H](CCC(N)=O)NC(=O)[C@@H](NC(=O)[C@H](Cc1ccccc1)NC(=O)[C@H](CC(=O)O)NC(=O)[C@H](CCC(N)=O)NC(=O)[C@H](C)NC(=O)[C@H](CCCNC(=N)N)NC(=O)[C@H](CCCNC(=N)N)NC(=O)[C@H](CO)NC(=O)[C@H](CC(=O)O)NC(=O)[C@H](CC(C)C)NC(=O)[C@H](Cc1ccc(O)cc1)NC(=O)[C@H](CCCCN)NC(=O)[C@H](CO)NC(=O)[C@H](Cc1ccc(O)cc1)NC(=O)[C@H](CC(=O)O)NC(=O)[C@H](CO)NC(=O)[C@@H](NC(=O)[C@H](Cc1ccccc1)NC(=O)[C@@H](NC(=O)CNC(=O)[C@H](CCC(N)=O)NC(=O)[C@H](CO)NC(=O)[C@@H](N)Cc1c[nH]cn1)[C@@H](C)O)[C@@H](C)O)C(C)C)C(=O)N[C@@H](CC(N)=O)C(=O)N[C@@H](CCCCNC(=O)COCCOCCNC(=O)COCCOCCNC(=O)CC[C@H](NC(=O)CCCCCCCCCCCCCCCCC(=O)O)C(=O)O)C(=O)O [Example 10]	10.34
CC(C)C[C@H](NC(=O)[C@H](Cc1c[nH]c2ccccc12)NC(=O)[C@H](CCCCNC(=O)COCCOCCNC(=O)COCCOCCNC(=O)CC[C@H](NC(=O)CCCCCCCCCCCCCCCCC(=O)O)C(=O)O)NC(=O)[C@@H](NC(=O)[C@H](Cc1ccccc1)NC(=O)[C@H](CC(=O)O)NC(=O)[C@H](CCC(N)=O)NC(=O)[C@H](C)NC(=O)[C@H](CCCNC(=N)N)NC(=O)[C@H](CCCNC(=N)N)NC(=O)[C@@H](NC(=O)[C@H](CC(=O)O)NC(=O)[C@H](CC(C)C)NC(=O)[C@H](Cc1ccc(O)cc1)NC(=O)[C@H](CCCCN)NC(=O)[C@H](CO)NC(=O)[C@H](Cc1ccc(O)cc1)NC(=O)[C@H](CC(=O)O)NC(=O)[C@H](CO)NC(=O)[C@@H](NC(=O)[C@H](Cc1ccccc1)NC(=O)[C@@H](NC(=O)CNC(=O)[C@H](CCC(N)=O)NC(=O)[C@H](CO)NC(=O)[C@@H](N)Cc1c[nH]cn1)[C@@H](C)O)[C@@H](C)O)[C@@H](C)O)C(C)C)C(=O)N[C@@H](CC(C)C)C(=O)N[C@@H](CO)C(=O)N[C@H](C(=O)O)[C@@H](C)O [Example 13] (H-HSQGTFTSDYSKYLDTRRAQDFVK([AEEA-AEEA-γGlu-C18 diacid])WLLST-OH; N-terminus and C-terminus assumed)	10.80
CC(C)C[C@H](NC(=O)[C@H](Cc1ccc(O)cc1)NC(=O)[C@H](CCCCN)NC(=O)[C@H](CO)NC(=O)[C@H](Cc1ccc(O)cc1)NC(=O)[C@H](CC(=O)O)NC(=O)[C@H](CO)NC(=O)[C@@H](NC(=O)[C@H](Cc1ccccc1)NC(=O)[C@@H](NC(=O)CNC(=O)[C@H](CCC(N)=O)NC(=O)[C@H](CO)NC(=O)[C@@H](N)Cc1c[nH]cn1)[C@@H](C)O)[C@@H](C)O)C(=O)N[C@@H](CC(=O)O)C(=O)N[C@@H](CO)C(=O)N[C@@H](CCCNC(=N)N)C(=O)N[C@@H](CCCNC(=N)N)C(=O)N[C@@H](C)C(=O)N[C@@H](CCC(N)=O)C(=O)N[C@@H](CC(=O)O)C(=O)N[C@@H](Cc1ccccc1)C(=O)N[C@H](C(=O)N[C@@H](CCCCNC(=O)COCCOCCNC(=O)COCCOCCNC(=O)CC[C@H](NC(=O)CCCCCCCCCCCCCCCCC(=O)O)C(=O)O)C(=O)N[C@@H](Cc1c[nH]c2ccccc12)C(=O)N[C@@H](CC(C)C)C(=O)N[C@@H](CC(C)C)C(=O)N[C@@H](CO)C(=O)N[C@H](C(=O)O)[C@@H](C)O)C(C)C [Example 14]	10.70
CC(C)C[C@H](NC(=O)[C@H](Cc1ccc(O)cc1)NC(=O)[C@H](CCCCN)NC(=O)[C@H](CO)NC(=O)[C@H](Cc1ccc(O)cc1)NC(=O)[C@H](CC(=O)O)NC(=O)[C@H](CO)NC(=O)[C@@H](NC(=O)[C@H](Cc1ccccc1)NC(=O)[C@@H](NC(=O)CNC(=O)[C@H](CCC(N)=O)NC(=O)[C@H](CO)NC(=O)[C@@H](N)Cc1c[nH]cn1)[C@@H](C)O)[C@@H](C)O)C(=O)N[C@@H](CC(=O)O)C(=O)N[C@@H](CO)C(=O)N[C@@H](CCCNC(=N)N)C(=O)N[C@@H](CCCNC(=N)N)C(=O)N[C@@H](C)C(=O)N[C@@H](CCC(N)=O)C(=O)N[C@@H](CC(=O)O)C(=O)N[C@@H](Cc1ccccc1)C(=O)N[C@H](C(=O)N[C@@H](CCCCNC(=O)COCCOCCNC(=O)COCCOCCNC(=O)CC[C@H](NC(=O)CCCCCCCCCCCCCCCCC(=O)O)C(=O)O)C(=O)N[C@@H](Cc1c[nH]c2ccccc12)C(=O)N[C@@H](CC(C)C)C(=O)N[C@@H](CC(C)C)C(=O)N[C@H](C(=O)N[C@H](C(=O)O)[C@@H](C)O)[C@@H](C)O)C(C)C [Example 15]	10.62
CC(C)C[C@H](NC(=O)[C@H](Cc1ccc(O)cc1)NC(=O)[C@H](CCCCN)NC(=O)[C@H](CO)NC(=O)[C@H](Cc1ccc(O)cc1)NC(=O)[C@H](CC(=O)O)NC(=O)[C@H](CO)NC(=O)[C@@H](NC(=O)[C@H](Cc1ccccc1)NC(=O)[C@@H](NC(=O)CNC(=O)[C@H](CCC(N)=O)NC(=O)[C@H](CO)NC(=O)[C@@H](N)Cc1c[nH]cn1)[C@@H](C)O)[C@@H](C)O)C(=O)N[C@@H](CC(=O)O)C(=O)N[C@@H](CCCCNC(=O)COCCOCCNC(=O)COCCOCCNC(=O)CC[C@H](NC(=O)CCCCCCCCCCCCCCCCC(=O)O)C(=O)O)C(=O)N[C@@H](CCCNC(=N)N)C(=O)N[C@@H](CCCNC(=N)N)C(=O)N[C@@H](C)C(=O)N[C@@H](CCC(N)=O)C(=O)N[C@@H](CC(=O)O)C(=O)N[C@@H](Cc1ccccc1)C(=O)N[C@H](C(=O)N[C@@H](CCC(N)=O)C(=O)N[C@@H](Cc1c[nH]c2ccccc12)C(=O)N[C@@H](CC(C)C)C(=O)N[C@@H](CC(C)C)C(=O)N[C@@H](CC(N)=O)C(=O)N[C@H](C(=O)O)[C@@H](C)O)C(C)C [Example 17] (H-HSQGTFTSDYSKYLDK([AEEA-AEEA-γGlu-C18 diacid])RRAQDFVQWLLNT-OH; N-terminus and C-terminus assumed)	11.52
CC(C)C[C@H](NC(=O)[C@H](Cc1ccc(O)cc1)NC(=O)[C@H](CCCCN)NC(=O)[C@H](CO)NC(=O)[C@H](Cc1ccc(O)cc1)NC(=O)[C@H](CC(=O)O)NC(=O)[C@H](CO)NC(=O)[C@@H](NC(=O)[C@H](Cc1ccccc1)NC(=O)[C@@H](NC(=O)CNC(=O)[C@H](CCC(N)=O)NC(=O)[C@H](CO)NC(=O)[C@@H](N)Cc1c[nH]cn1)[C@@H](C)O)[C@@H](C)O)C(=O)N[C@@H](CC(=O)O)C(=O)N[C@@H](CO)C(=O)N[C@@H](CCCNC(=N)N)C(=O)N[C@@H](CCCCNC(=O)COCCOCCNC(=O)COCCOCCNC(=O)CC[C@H](NC(=O)CCCCCCCCCCCCCCCCC(=O)O)C(=O)O)C(=O)N[C@@H](C)C(=O)N[C@@H](CCC(N)=O)C(=O)N[C@@H](CC(=O)O)C(=O)N[C@@H](Cc1ccccc1)C(=O)N[C@H](C(=O)N[C@@H](CCC(N)=O)C(=O)N[C@@H](Cc1c[nH]c2ccccc12)C(=O)N[C@@H](CC(C)C)C(=O)N[C@@H](CC(C)C)C(=O)N[C@@H](CC(N)=O)C(=O)N[C@H](C(=O)O)[C@@H](C)O)C(C)C [Example 18] (H-HSQGTFTSDYSKYLDSRK([AEEA-AEEA-γGlu-C18 diacid])AQDFVQWLLNT-OH; N-terminus and C-terminus assumed)	9.69
CC(C)C[C@H](NC(=O)[C@H](Cc1ccc(O)cc1)NC(=O)[C@H](CCCCN)NC(=O)[C@H](CO)NC(=O)[C@H](Cc1ccc(O)cc1)NC(=O)[C@H](CC(=O)O)NC(=O)[C@H](CO)NC(=O)[C@@H](NC(=O)[C@H](Cc1ccccc1)NC(=O)[C@@H](NC(=O)CNC(=O)[C@H](CCC(N)=O)NC(=O)[C@H](CO)NC(=O)[C@@H](N)Cc1c[nH]cn1)[C@@H](C)O)[C@@H](C)O)C(=O)N[C@@H](CC(=O)O)C(=O)N[C@@H](CO)C(=O)N[C@@H](CCCCNC(=O)COCCOCCNC(=O)COCCOCCNC(=O)CC[C@H](NC(=O)CCCCCCCCCCCCCCCCC(=O)O)C(=O)O)C(=O)N[C@@H](CCCNC(=N)N)C(=O)N[C@@H](C)C(=O)N[C@@H](CCC(N)=O)C(=O)N[C@@H](CC(=O)O)C(=O)N[C@@H](Cc1ccccc1)C(=O)N[C@H](C(=O)N[C@@H](CCC(N)=O)C(=O)N[C@@H](Cc1c[nH]c2ccccc12)C(=O)N[C@@H](CC(C)C)C(=O)N[C@@H](CC(C)C)C(=O)N[C@@H](CC(N)=O)C(=O)N[C@H](C(=O)O)[C@@H](C)O)C(C)C [Example 19]	10.03
CSCC[C@H](NC(=O)[C@H](CC(C)C)NC(=O)[C@H](Cc1c[nH]c2ccccc12)NC(=O)[C@H](CCC(N)=O)NC(=O)[C@@H](NC(=O)[C@H](Cc1ccccc1)NC(=O)[C@H](CC(=O)O)NC(=O)[C@H](CCCCNC(=O)COCCOCCNC(=O)CC[C@H](NC(=O)CCCCCCCCCCCCCCCCC(=O)O)C(=O)O)NC(=O)[C@H](C)NC(=O)[C@H](CCCNC(=N)N)NC(=O)[C@H](CCCNC(=N)N)NC(=O)[C@H](CO)NC(=O)[C@H](CC(=O)O)NC(=O)[C@H](CC(C)C)NC(=O)[C@H](Cc1ccc(O)cc1)NC(=O)[C@H](CCCCN)NC(=O)[C@H](CO)NC(=O)[C@H](Cc1ccc(O)cc1)NC(=O)[C@H](CC(=O)O)NC(=O)[C@H](CO)NC(=O)[C@@H](NC(=O)[C@H](Cc1ccccc1)NC(=O)[C@@H](NC(=O)CNC(=O)[C@H](CCC(N)=O)NC(=O)[C@@H](CO)NC(=O)[C@@H](N)Cc1c[nH]cn1)[C@@H](C)O)[C@@H](C)O)C(C)C)C(=O)N[C@@H](CC(N)=O)C(=O)N[C@H](C(=O)N[C@@H](CCCCN)C(N)=O)[C@@H](C)O [Example 23, N^α-(N^ε24 [2-[2-[2-[[(4S)-5-hydroxy-4-[(18-hydroxy-18-oxo-octadecanoyl)amino]-5-oxo-pentanoyl]amino]ethoxy]ethoxy]acetyl] [D-Ser^e, Lys^20] Glucagonyl) Lysinyl amide]	9.27
